Data as given in patent US20260049075A1, “CYTOTOXIC IMIDAZO[1,2-A]PYRIDINE COMPOUNDS AND THEIR USE IN THERAPY” (MyricX Pharma Limited, priority 2022, published 2026).

Legend:
human NMT1 (HsNMT1) = target: T1, human NMT1 (HsNMT1) (Homo sapiens, UniProt P30419); assay: HsNMT1 sensitive fluorescence-based assay (CoA detection with CPM); assay type: biochemical
T1 sequence (P30419 1-496): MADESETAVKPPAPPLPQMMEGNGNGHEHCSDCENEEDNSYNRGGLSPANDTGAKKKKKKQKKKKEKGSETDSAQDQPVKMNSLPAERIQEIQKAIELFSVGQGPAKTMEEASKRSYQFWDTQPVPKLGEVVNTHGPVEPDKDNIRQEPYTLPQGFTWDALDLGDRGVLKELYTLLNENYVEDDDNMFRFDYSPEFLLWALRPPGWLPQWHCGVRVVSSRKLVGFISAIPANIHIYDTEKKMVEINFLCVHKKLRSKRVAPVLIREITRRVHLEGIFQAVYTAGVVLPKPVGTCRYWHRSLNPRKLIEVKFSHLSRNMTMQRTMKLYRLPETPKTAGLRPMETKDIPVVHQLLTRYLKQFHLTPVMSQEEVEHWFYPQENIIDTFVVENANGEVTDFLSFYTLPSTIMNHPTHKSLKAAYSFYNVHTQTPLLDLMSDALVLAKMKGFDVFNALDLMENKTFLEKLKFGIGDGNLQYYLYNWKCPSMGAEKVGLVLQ

[1] = tested on: BT474 breast cancer cells; assay: Orthotopic breast cancer xenograft model (BT474), tumour volume; assay type: in vivo, mouse; conditions: 2.0 mg/kg IV, 2 days dosing then 5 day holiday; stopped at day 13
Protocol: NOD/SCID mice were implanted with estrogen pellets (17β-estradiol, 60 day release, 0.36 mg) subcutaneously in the right flank one day before the tumour inoculation. On day −8 each mouse was then injected in the right mammary fat pad with 1×10^7 viable BT474 breast cancer cells resuspended in 0.2 mL of Phosphate Buffered Saline mixed with matrigel (1:1). Mice were assigned to treatment groups when tumour volumes averaged 149.78 mm^3 on study day 0. […] The study was terminated on Study Day 35. […] Each group was comprised of 10 mice. Tumour volumes in mice were measured three times per week and tumour volume was calculated using the formula 0.5 (L×W^2). […] Statistical analyses were carried out on tumour readings for Groups 1, 2, 3, 4 and 5 up to Study Day 23 (after this point >50% of the animals within one of the study groups were lost; Group 2) using two-way ANOVA, or a Mixed-Effects model was fitted when values were missing from groups (PRISM GraphPad Software Inc.). Statistical analysis of Group 6 was conducted until day 12 (at this point the study was terminated due to the significant loss of observed body weight). Using a ROUT outlier analysis in GraphPad Prism, one mouse in Group 5 was identified as an outlier across all timepoints (at the 5% confidence level) and has therefore been excluded from analysis. […]

DOHH-2 tumor cells = assay: Subcutaneous xenograft DOHH-2 Lymphoma Model; assay type: in vivo, mouse; conditions: CB17/SCID mice
Protocol: The in vivo efficacy of certain Example compounds was assessed in a subcutaneous xenograft DOHH-2 Lymphoma Model using 10 female 6-8 week old CB17/SCID Mice. Each mouse was inoculated subcutaneously at the right front region with DOHH-2 tumor cells (5×10^6) in 0.1 ml of PBS mixed with matrigel (1:1 PBS:matrigel) for tumor development. The test compound administration started once the mean tumor size reached approximately 100-150 mm^3. Compounds were administered either IP (vehicle 10 mM sodium phosphate+0.2% Tween-80 (pH7.4) or orally (vehicle 15 Na2HPO4 buffer (10 mM) (pH 4.5)+0.2% tween 80). Tumor volumes were measured in two dimensions using a caliper, and the volume expressed in mm^3 using the formula: V=(L×W×W)/2, where V is tumor volume, L is tumor length (the longest tumor dimension) and W is tumor width (the longest tumor dimension perpendicular to L). Mice were dosed with Example 21 orally (12.5 or 25 mg/kg) once a day for 9 consecutive days (FIG. 3). Example 5 was dosed intraperitoneally (7 or 20 mg/kg) in a cycle consisting of administration QD for three days followed by a three day no-dosing period followed by QD dosing for a further three days (FIG. 4). Example 12 was dosed intraperitoneally (0.7 or 2 mg/kg) in a cycle consisting of administration QD for three days followed by a three day no-dosing period followed by QD dosing for a further three days (FIG. 5). In a separate study Example 12 was dosed at […] in a cycle consisting of administration QD for two days followed by either four or six day no-dosing period, and this cycle was repeated three times (FIG. 6).
The protocol and any amendment(s) or procedures involving the care and use of animals in this study were reviewed and approved by the Institutional Animal Care and Use Committee (IACUC) of CrownBio prior to execution. During the study, the care and use of animals was conducted in accordance with the regulations of the Association for Assessment and Accreditation of Laboratory Animal Care (AAALAC).

[2] = Body weight in BT474 xenograft study; assay type: in vivo, mouse; conditions: 2 mg/kg IV, 2 days dosing then 5 day holiday; terminated early
Protocol: During the study, body weights were measured three times weekly for all animals. Animals were given Diet Gel for the entire duration on the study.

LNCaP tumour cells = assay: LNCaP prostate cancer xenograft model, tumour volume; assay type: in vivo, mouse; conditions: for Day 28 tumour volume (mm^3, mean ± SEM) / Tumour growth inhibition (TGI, %): IV, Q7D (x3); for Day 28 tumour volume (mm^3, mean ± SEM): NOD SCID mice; for Tumour growth inhibition (TGI, %): day 28
Description: A total of 84 male NOD SCID mice aged 5-8 weeks and weighing 25-30 g were used for the study.

VcaP tumour cells = assay: VcaP prostate cancer xenograft model, tumour volume; assay type: in vivo, mouse; conditions: for ΔTGI (Study Day 17): CB17/SCID mice
Description: All mice received two doses of test agent, on Study Day 1 and Study Day 8. The study was terminated on Study Day 30.

JIMT-1 tumour cells = assay: JIMT-1 breast cancer xenograft model, tumour volume; assay type: in vivo, mouse
Protocol: 80 mice were assigned to 8 treatment groups when tumour volumes averaged ˜160.66 mm^3 on Study Day 0. Dosing commenced the following day and all animals were dosed intravenously with ADC Example 3, sacituzumab govitecan or unconjugated sacituzumab. The study was terminated on the Study Day 60.

[3] = intraperitoneal dosing, Example 5 7 or 20 mg/kg, Example 12 0.7 or 2 mg/kg, QD cycles

For `CNCc1cnc2ccc(-c3ccc(F)c(F)c3OCCc3c(C(O)C(C)(C)C)nn(C)c3C)cn12` (single isomer, unassigned) [Example 12, 1-(4-(2-(2,3-difluoro-6-(3-((methylamino)methyl)imidazo[1,2-a]pyridin-6-yl)phenoxy)ethyl)-1,5-dimethyl-1H-pyrazol-3-yl)-2,2-dimethylpropan-1-ol], the IC50 (human NMT1 (HsNMT1)) was 2.1 nM, the tumour size [1] was “reduced tumour size” and the “tumour volume compared to vehicle” value (DOHH-2 tumor cells; [3]) was “significant reduction in tumour volume or reduced growth in tumour volume”. For the same molecule, the body weights [2] was “decreased significantly”.

Work on `CNCc1cnc2ccc(-c3ccc(F)cc3OCCc3c(C(C)O)nn(C)c3C)cn12` (stereo not shown) [Example 1, 1-{4-[2-(5-fluoro-2-{3-[(methylamino)methyl]imidazo[1,2-a]pyridin-6-yl}phenoxy)ethyl]-1,5-dimethyl-1H-pyrazol-3-yl}ethan-1-ol] yielded an IC50 (human NMT1 (HsNMT1)) of 2.2 nM.

With `CNCc1cnc2ccc(-c3ccc(F)c(F)c3OCCc3c(C(C)O)nn(C)c3C)cn12` (stereo not shown) [Example 5, 1-{4-[2-(2,3-difluoro-6-{3-[(methylamino)methyl]imidazo[1,2-a]pyridin-6-yl}phenoxy)ethyl]-1,5-dimethyl-1H-pyrazol-3-yl}ethan-1-ol] the IC50 (human NMT1 (HsNMT1)) was 2.2 nM and the “tumour volume compared to vehicle” value (DOHH-2 tumor cells; [3]) was “significant reduction in tumour volume or reduced growth in tumour volume”.

In the case of `Cc1c(CCOc2cc(F)ccc2-c2ccc3ncc(CCN)n3c2)c(C(C)O)nn1C` (stereo not shown) [Example 7, 1-(4-(2-(2-(3-(2-aminoethyl)imidazo[1,2-a]pyridin-6-yl)-5-fluorophenoxy)ethyl)-1,5-dimethyl-1H-pyrazol-3-yl)ethan-1-ol], the IC50 (human NMT1 (HsNMT1)) is reported as 9 nM.

`Cc1c(CCOc2c(-c3ccc4ncc(CN)n4c3)ccc(F)c2F)c(C(O)C(C)(C)C)nn1C` (stereo not shown) [Example 17, 1-(4-(2-(6-(3-(aminomethyl)imidazo[1,2-a]pyridin-6-yl)-2,3-difluorophenoxy)ethyl)-1,5-dimethyl-1H-pyrazol-3-yl)-2,2-dimethylpropan-1-ol] showed an IC50 (human NMT1 (HsNMT1)) of 2 nM.

`Cc1c(CCOc2c(-c3ccc4ncc(CN)n4c3)ccc(F)c2F)c(C(C)(C)O)nn1C` [Example 20, 2-[4-(2-{6-[3-(aminomethyl)imidazo[1,2-a]pyridin-6-yl]-2,3-difluorophenoxy}ethyl)-1,5-dimethyl-1H-pyrazol-3-yl]propan-2-ol] gave an IC50 (human NMT1 (HsNMT1)) of 2 nM.

In the case of `CNCc1cnc2ccc(-c3ccc(F)c(F)c3OCCc3c(C(C)(C)O)nn(C)c3C)cn12` [Example 21, 2-(4-(2-(2,3-difluoro-6-(3-((methylamino)methyl)imidazo[1,2-a]pyridin-6-yl)phenoxy)ethyl)-1,5-dimethyl-1H-pyrazol-3-yl)propan-2-ol], the “tumour volume compared to vehicle” value (DOHH-2 tumor cells; oral dosing 12.5 or 25 mg/kg once a day for 9 days) is reported as “significant reduction in tumour volume or reduced growth in tumour volume”.

In the case of `CCNCc1cnc2ccc(-c3ccc(F)cc3OCCc3c(C(C)(C)O)nn(C)c3C)cn12` [Example 22, 2-{4-[2-(2-{3-[(ethylamino)methyl]imidazo[1,2-a]pyridin-6-yl}-5-fluorophenoxy)ethyl]-1,5-dimethyl-1H-pyrazol-3-yl}propan-2-ol], the IC50 (human NMT1 (HsNMT1)) is reported as 3 nM.

`CNCc1cnc2ccc(-c3ccc(F)c(F)c3OCCc3c(C(O)C(C)C)nn(C)c3C)cn12` (stereo not shown) [Example 25, 1-{4-[2-(2,3-difluoro-6-{3-[(methylamino)methyl]imidazo[1,2-a]pyridin-6-yl}phenoxy)ethyl]-1,5-dimethyl-1H-pyrazol-3-yl}-2-methylpropan-1-ol] showed an IC50 (human NMT1 (HsNMT1)) of 2 nM.

For “ifinatamab: antibody binding CD276 (B7-H3); heavy chain SEQ ID NO: 6, light chain SEQ ID NO: 5”, the “effect on LNCaP tumour volume compared to vehicle” value (shortened to “effect … compared to vehicle”) (LNCaP tumour cells; 5 mg/kg) was “no significant effect”, the “Day 28 tumour volume (mm^3, mean ± SEM)” value (LNCaP tumour cells; 5 mg/kg) was 551.4 ± 73.1 mm^3 and the “Tumour growth inhibition (TGI, %)” value (LNCaP tumour cells; 5 mg/kg) was 30.6%. The “effect … compared to vehicle” value (LNCaP tumour cells; 10 mg/kg) was “no significant effect”, the “Day 28 tumour volume (mm^3, mean ± SEM)” value (LNCaP tumour cells; 10 mg/kg) was 666.56 ± 103.2 mm^3 and the “Tumour growth inhibition (TGI, %)” value (LNCaP tumour cells; 10 mg/kg) was 13.0%. The “tumour volume compared to vehicle alone” value (VcaP tumour cells; 2.5 mg/kg) was “no significant difference”, the “ΔTGI (Study Day 17)” value (VcaP tumour cells; 2.5 mg/kg IV QW x 2 weeks) was 8.47% and the “tumour volume compared to vehicle alone” value (VcaP tumour cells; 5 mg/kg) was “no significant difference”. The “ΔTGI (Study Day 17)” value (VcaP tumour cells; 5 mg/kg IV QW x 2 weeks) was 12.44%.

For sacituzumab, the “tumour volume compared to vehicle alone” value (JIMT-1 tumour cells; 2.5 mg/kg) was “no significant difference” and the “tumour volume compared to vehicle alone” value (JIMT-1 tumour cells; 5 mg/kg) was “significant decrease in tumour volume”.

With “sacituzumab govitecan [reference compound]” the “tumour volume compared to vehicle alone” value (JIMT-1 tumour cells; 2.5 mg/kg) was “significant decrease in tumour volume” and the “tumour volume compared to vehicle alone” value (JIMT-1 tumour cells; 5 mg/kg) was “significant decrease in tumour volume”.

B1: ifinatamab-DXd (conjugate, chains of the INN, looked up)
VH: QVQLVQSGAEVKKPGSSVKVSCKASGYTFTNYVMHWVRQAPGQGLEWMGYINPYNDDVKYNEKFKGRVTITADESTSTAYMELSSLRSEDTAVYYCARWGYYGSPLYYFDYWGQGTLVTVSS
VL: EIVLTQSPATLSLSPGERATLSCRASSRLIYMHWYQQKPGQAPRPLIYATSNLASGIPARFSGSGSGTDFTLTISSLEPEDFAVYYCQQWNSNPPTFGQGTKVEIK
modifications: deruxtecan (DXd) payload
For B1, the “effect … compared to vehicle” value (LNCaP tumour cells; 5 mg/kg) was “slowed the growth of LNCaP tumours to a lesser extent”, the “Day 28 tumour volume (mm^3, mean ± SEM)” value (LNCaP tumour cells; 5 mg/kg) was 364.6 ± 51.7 mm^3 and the “Tumour growth inhibition (TGI, %)” value (LNCaP tumour cells; 5 mg/kg) was 58.8%. For the same molecule, the “effect … compared to vehicle” value (LNCaP tumour cells; 10 mg/kg) was “significantly reduced the mean volume”, the “Day 28 tumour volume (mm^3, mean ± SEM)” value (LNCaP tumour cells; 10 mg/kg) was 259.5 ± 50.3 mm^3 and the “Tumour growth inhibition (TGI, %)” value (LNCaP tumour cells; 10 mg/kg) was 75.0%. The “tumour volume compared to vehicle alone” value (VcaP tumour cells; 2.5 mg/kg) was “no significant difference”, the “ΔTGI (Study Day 17)” value (VcaP tumour cells; 2.5 mg/kg IV QW x 2 weeks) was 5.24% and the “tumour volume compared to vehicle alone” value (VcaP tumour cells; 5 mg/kg) was “significantly higher tumour volume”. For the same molecule, the “ΔTGI (Study Day 17)” value (VcaP tumour cells; 5 mg/kg IV QW x 2 weeks) was 2.86%.
